Data taken from publication PMC10879502, “Linking ATP and allosteric sites to achieve superadditive binding with bivalent EGFR kinase inhibitors” (Communications Chemistry, 2024).
Values joined by “and” are separate entries in the source; they are usually repeats but may differ in a detail not shown here. Equal entries are not always repeated. Where two headings read alike, the source gives them in different places. Values belong to the molecule of their own block, whether it stands above or below them.

Tests used:
[1] = target: T1, EGFR L858R/T790M (LRTM) kinase domain (Homo sapiens, UniProt P00533, L858R/T790M); assay: HTRF KinEASE-TK kinase activity assay; assay type: biochemical; settings: for Linking coefficient E: LRTM IC50, upper limit; for activity: LRTM, read-out: percent inhibition
T1 construct: The EGFR kinase domain (residues 696–1022) was cloned into pTriEx; 6xHis (N, cleaved yes); GST (N, cleaved yes); made in house; host or cells: SF9 insect cells, baculovirus

ULK1 = ULK1 (Homo sapiens, UniProt O75385); assay: KINOMEscan; assay type: binding; settings: 1 μM
PIK3CA(M1043I) = PIK3CA(M1043I) (Homo sapiens, UniProt P42336, M1043I); assay: KINOMEscan; assay type: binding; settings: 1 μM
EPHA2 = EPHA2 (Homo sapiens, UniProt P29317); assay: KINOMEscan; assay type: binding; settings: 1 μM
CLK3 = CLK3 (Homo sapiens, UniProt P49761); assay: KINOMEscan; assay type: binding; settings: 1 μM
PRKCE = PRKCE (Homo sapiens, UniProt Q02156); assay: KINOMEscan; assay type: binding; settings: 1 μM
PRKCE, sequence (Q02156 whole entry): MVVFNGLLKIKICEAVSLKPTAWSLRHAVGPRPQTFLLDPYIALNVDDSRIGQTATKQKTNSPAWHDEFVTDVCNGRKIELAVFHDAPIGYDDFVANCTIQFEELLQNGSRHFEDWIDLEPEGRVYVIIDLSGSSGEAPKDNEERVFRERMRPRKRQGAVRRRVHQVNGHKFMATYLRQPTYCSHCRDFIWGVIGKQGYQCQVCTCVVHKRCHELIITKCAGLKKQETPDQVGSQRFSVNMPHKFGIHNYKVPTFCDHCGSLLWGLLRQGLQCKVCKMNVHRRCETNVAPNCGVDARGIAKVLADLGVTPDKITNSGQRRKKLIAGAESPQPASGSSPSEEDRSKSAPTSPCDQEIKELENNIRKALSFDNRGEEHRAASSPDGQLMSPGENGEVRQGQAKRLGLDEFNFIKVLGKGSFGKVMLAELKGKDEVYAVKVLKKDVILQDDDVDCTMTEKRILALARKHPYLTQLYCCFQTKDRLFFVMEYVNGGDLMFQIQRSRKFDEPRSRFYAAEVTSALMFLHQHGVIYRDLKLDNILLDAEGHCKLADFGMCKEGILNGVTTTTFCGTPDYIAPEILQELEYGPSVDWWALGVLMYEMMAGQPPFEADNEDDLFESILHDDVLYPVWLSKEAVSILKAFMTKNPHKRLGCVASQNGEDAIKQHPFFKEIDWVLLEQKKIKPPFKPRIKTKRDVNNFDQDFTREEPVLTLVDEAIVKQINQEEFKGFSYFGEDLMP

MAP3K3 = target: T2, MAP3K3 (Homo sapiens, UniProt Q99759); assay: KINOMEscan; assay type: binding; settings: 1 μM
T2 construct: purchased Eurofins DiscoverX Corporation

TYRO3 = TYRO3 (Homo sapiens, UniProt Q06418); assay: KINOMEscan; assay type: binding; settings: 1 μM
TYRO3, sequence (Q06418 41-890): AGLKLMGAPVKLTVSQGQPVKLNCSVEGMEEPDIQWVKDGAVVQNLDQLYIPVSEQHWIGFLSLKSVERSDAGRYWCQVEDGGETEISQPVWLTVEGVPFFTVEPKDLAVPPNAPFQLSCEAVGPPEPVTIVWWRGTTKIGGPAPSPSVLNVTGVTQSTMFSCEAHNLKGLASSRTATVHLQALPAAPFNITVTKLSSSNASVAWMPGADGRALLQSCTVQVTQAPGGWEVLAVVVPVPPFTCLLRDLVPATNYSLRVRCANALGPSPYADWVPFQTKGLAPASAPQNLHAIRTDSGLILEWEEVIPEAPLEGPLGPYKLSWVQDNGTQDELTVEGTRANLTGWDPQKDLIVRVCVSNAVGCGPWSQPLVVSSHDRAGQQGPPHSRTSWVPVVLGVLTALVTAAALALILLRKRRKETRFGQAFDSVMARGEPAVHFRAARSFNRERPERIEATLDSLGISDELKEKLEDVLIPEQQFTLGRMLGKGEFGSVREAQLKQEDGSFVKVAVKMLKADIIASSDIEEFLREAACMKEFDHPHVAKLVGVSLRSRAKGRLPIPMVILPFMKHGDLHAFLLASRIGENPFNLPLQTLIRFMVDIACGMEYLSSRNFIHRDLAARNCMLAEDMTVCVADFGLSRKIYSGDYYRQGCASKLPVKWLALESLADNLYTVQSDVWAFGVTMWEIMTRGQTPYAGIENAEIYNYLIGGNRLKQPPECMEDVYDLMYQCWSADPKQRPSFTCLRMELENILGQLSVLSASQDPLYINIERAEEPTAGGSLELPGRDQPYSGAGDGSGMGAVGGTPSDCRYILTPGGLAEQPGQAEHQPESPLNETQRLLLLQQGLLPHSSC

AMPK-alpha2 = AMPK-alpha2 (Homo sapiens, UniProt P54646); assay: KINOMEscan; assay type: binding; settings: 1 μM
LRRK2 = target: T3, LRRK2 (Homo sapiens, UniProt Q5S007); assay: KINOMEscan; assay type: binding; settings: 1 μM
T3 construct: purchased Eurofins DiscoverX Corporation

PRKX = PRKX (Homo sapiens, UniProt P51817); assay: KINOMEscan; assay type: binding; settings: 1 μM
FLT1 = FLT1 (Homo sapiens, UniProt P17948); assay: KINOMEscan; assay type: binding; settings: 1 μM
FLT1, sequence (P17948 27-1338): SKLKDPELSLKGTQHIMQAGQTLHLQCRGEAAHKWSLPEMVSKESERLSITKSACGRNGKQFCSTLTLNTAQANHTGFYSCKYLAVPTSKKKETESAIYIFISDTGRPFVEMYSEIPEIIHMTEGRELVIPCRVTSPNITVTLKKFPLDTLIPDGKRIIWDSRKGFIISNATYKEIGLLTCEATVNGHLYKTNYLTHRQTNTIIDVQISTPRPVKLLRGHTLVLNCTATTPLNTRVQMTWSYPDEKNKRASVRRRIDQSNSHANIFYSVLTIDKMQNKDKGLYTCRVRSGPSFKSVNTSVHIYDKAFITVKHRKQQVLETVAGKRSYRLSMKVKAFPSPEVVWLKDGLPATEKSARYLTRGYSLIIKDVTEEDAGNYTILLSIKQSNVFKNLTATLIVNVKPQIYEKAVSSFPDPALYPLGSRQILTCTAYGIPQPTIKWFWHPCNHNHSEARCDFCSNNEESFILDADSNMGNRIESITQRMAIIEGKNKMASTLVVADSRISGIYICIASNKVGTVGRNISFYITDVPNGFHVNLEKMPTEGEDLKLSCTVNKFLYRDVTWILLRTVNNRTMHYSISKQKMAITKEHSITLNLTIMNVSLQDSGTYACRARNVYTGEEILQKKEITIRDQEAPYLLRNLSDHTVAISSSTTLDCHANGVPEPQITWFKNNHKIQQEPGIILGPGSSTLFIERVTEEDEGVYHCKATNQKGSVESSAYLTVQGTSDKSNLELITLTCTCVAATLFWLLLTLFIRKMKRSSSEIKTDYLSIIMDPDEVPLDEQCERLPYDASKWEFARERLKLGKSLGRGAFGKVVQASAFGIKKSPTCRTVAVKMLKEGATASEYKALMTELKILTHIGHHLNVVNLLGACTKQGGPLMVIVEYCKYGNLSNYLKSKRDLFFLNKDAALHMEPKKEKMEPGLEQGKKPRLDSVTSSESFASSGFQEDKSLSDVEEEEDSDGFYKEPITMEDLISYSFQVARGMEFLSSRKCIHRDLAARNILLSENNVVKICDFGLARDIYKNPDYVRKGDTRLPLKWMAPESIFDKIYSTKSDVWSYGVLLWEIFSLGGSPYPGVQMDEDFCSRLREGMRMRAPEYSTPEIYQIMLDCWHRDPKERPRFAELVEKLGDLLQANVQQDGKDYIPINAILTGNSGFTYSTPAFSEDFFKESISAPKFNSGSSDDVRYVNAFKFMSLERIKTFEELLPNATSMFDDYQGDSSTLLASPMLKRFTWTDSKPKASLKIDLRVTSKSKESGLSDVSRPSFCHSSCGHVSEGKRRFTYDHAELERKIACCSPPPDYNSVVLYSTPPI

GRK1 = target: T4, GRK1 (Homo sapiens, UniProt Q15835); assay: KINOMEscan; assay type: binding; settings: 1 μM
T4 construct: purchased Eurofins DiscoverX Corporation

[2] = target: RSK2(Kin.Dom.2-C-terminal) (Homo sapiens, UniProt P51812); assay: KINOMEscan; assay type: binding; settings: 1 μM
[3] = target: T5, ABL1(H396P)-phosphorylated (Homo sapiens, UniProt P00519, H396P); assay: KINOMEscan; assay type: binding; settings: 1 μM
T5 construct: purchased Eurofins DiscoverX Corporation

PKAC-beta = PKAC-beta (Homo sapiens, UniProt P22694); assay: KINOMEscan; assay type: binding; settings: 1 μM
KIT(V559D+T670I) = target: T6, KIT(V559D+T670I) (Homo sapiens, UniProt P10721, T670I/V559D); assay: KINOMEscan; assay type: binding; settings: 1 μM
T6 construct: purchased Eurofins DiscoverX Corporation

SLK = SLK (Homo sapiens, UniProt Q9H2G2); assay: KINOMEscan; assay type: binding; settings: 1 μM
TNK1 = target: T7, TNK1 (Homo sapiens, UniProt Q13470); assay: KINOMEscan; assay type: binding; settings: 1 μM
T7 construct: purchased Eurofins DiscoverX Corporation
T7 sequence (Q13470 whole entry): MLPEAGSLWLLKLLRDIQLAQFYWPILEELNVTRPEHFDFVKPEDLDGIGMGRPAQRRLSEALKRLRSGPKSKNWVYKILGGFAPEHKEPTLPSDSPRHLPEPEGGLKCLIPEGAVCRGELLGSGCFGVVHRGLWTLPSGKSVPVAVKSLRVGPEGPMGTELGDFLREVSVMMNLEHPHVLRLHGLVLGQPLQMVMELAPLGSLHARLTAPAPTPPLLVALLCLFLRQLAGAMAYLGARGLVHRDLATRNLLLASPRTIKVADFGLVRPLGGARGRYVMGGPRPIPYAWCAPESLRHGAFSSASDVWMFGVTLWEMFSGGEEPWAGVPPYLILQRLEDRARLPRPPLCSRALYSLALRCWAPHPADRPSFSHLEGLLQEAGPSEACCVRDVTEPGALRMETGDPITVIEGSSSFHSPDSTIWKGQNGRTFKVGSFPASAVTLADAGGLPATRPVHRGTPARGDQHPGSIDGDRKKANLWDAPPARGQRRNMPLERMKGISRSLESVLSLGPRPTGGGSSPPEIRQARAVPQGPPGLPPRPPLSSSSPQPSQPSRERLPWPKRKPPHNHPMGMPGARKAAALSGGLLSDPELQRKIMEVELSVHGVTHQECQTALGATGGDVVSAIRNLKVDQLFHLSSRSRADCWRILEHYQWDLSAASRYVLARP

CDK8 = CDK8 (Homo sapiens, UniProt P49336); assay: KINOMEscan; assay type: binding; settings: 1 μM
CDK8, sequence (P49336 whole entry): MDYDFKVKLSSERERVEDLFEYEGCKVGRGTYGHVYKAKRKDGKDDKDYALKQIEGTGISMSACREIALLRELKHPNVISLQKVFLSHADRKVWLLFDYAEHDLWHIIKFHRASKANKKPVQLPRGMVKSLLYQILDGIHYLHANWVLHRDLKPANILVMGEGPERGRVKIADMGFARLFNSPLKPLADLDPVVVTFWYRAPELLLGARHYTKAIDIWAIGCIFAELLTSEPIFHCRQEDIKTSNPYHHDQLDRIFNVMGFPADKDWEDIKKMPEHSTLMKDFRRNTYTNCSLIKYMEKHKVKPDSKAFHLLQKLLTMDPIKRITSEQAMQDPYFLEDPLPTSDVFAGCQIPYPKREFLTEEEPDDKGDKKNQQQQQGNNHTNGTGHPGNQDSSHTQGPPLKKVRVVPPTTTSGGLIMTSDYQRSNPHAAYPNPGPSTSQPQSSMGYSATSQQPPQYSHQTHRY

MAP4K5 = target: T8, MAP4K5 (Homo sapiens, UniProt Q9Y4K4); assay: KINOMEscan; assay type: binding; settings: 1 μM
T8 construct: purchased Eurofins DiscoverX Corporation

MELK = target: T9, MELK (Homo sapiens, UniProt Q14680); assay: KINOMEscan; assay type: binding; settings: 1 μM
T9 construct: purchased Eurofins DiscoverX Corporation

PFTK1 = PFTK1 (Homo sapiens, UniProt O94921); assay: KINOMEscan; assay type: binding; settings: 1 μM
PFTK1, sequence (O94921 whole entry): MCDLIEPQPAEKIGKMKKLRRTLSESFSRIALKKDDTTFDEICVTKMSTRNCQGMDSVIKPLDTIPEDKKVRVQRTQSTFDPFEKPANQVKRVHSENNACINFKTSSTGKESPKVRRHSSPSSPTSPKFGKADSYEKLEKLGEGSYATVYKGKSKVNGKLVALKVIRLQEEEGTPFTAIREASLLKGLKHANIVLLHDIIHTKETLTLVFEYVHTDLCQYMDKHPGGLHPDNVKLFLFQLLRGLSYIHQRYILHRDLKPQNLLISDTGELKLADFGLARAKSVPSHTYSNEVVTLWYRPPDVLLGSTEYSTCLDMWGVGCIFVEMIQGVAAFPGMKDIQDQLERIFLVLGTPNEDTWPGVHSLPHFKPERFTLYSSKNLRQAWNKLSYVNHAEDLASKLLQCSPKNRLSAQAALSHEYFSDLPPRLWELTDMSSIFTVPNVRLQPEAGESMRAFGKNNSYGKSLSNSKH

ERN1 = ERN1 (Homo sapiens, UniProt O75460); assay: KINOMEscan; assay type: binding; settings: 1 μM
[4] = test system: HCC827 cells (exon 19 del); assay: MTT antiproliferative activity assay; assay type: cell-based, human
Experimental: (§1) Cells were dosed with inhibitors to a final DMSO 0.5% in triplicate for 37 °C for 72 h. Cellular inhibition of growth was assessed by MTT viability assay according to the manufactures protocol (OZ Biosciences). […] Ba/F3 cells were all cultured in RPMI1640 media with 10% fetal bovine serum and 1% penicillin and streptomycin. The Ba/F3 cell lines were tested negative for Mycoplasma using Mycoplasma Plus PCR Primer Set (Agilent) and were passaged and/or used for no longer than 4 weeks for all experiments. Assay reagents were purchased from MilliporeSigma (Cat# R7017-5G). Ba/F3 cells were plated and treated with increasing concentrations of inhibitors in triplicate for 72 h. Compounds were dispensed using the Tecan D300e Digital Dispenser. […] All experiments were repeated at least 3 times and values were reported as an average with standard deviation.

[5] = test system: H1975 cells (L858R/T790M); assay: MTT antiproliferative activity assay; assay type: cell-based, human
Experimental: as §1

EGFR(S752-I759del) = EGFR(S752-I759del) (Homo sapiens, UniProt P00533, DEL752-759); assay: KINOMEscan; assay type: binding; settings: 1 μM
DMPK = target: T10, DMPK (Homo sapiens, UniProt Q09013); assay: KINOMEscan; assay type: binding; settings: 1 μM
T10 construct: purchased Eurofins DiscoverX Corporation

KIT = target: T11, KIT (Homo sapiens, UniProt P10721); assay: KINOMEscan; assay type: binding; settings: 1 μM
T11 construct: purchased Eurofins DiscoverX (KINOMEscan)

YSK1 = YSK1 (Homo sapiens, UniProt O00506); assay: KINOMEscan; assay type: binding; settings: 1 μM
BLK = BLK (Homo sapiens, UniProt P51451); assay: KINOMEscan; assay type: binding; settings: 1 μM
BLK, sequence (P51451 whole entry): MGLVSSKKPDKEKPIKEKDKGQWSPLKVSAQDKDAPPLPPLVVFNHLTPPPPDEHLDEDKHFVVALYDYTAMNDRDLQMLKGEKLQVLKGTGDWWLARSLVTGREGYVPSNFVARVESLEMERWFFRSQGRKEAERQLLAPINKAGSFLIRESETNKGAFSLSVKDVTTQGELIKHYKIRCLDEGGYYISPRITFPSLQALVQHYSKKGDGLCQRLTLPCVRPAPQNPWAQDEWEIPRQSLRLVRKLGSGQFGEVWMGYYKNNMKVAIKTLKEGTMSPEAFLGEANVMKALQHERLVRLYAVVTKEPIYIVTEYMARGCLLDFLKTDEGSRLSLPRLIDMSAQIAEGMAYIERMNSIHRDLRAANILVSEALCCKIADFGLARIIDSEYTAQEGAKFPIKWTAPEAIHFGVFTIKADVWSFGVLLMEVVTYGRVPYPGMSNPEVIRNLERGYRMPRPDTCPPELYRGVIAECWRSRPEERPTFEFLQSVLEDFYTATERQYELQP

KIT(L576P) = target: T12, KIT(L576P) (Homo sapiens, UniProt P10721, L576P); assay: KINOMEscan; assay type: binding; settings: 1 μM
T12 construct: purchased Eurofins DiscoverX (KINOMEscan)

Linking coefficient E ([1]; ATP fragment 5, allosteric fragment 10): < 1.0 M⁻¹
Linking coefficient E ([1]; ATP fragment 6, allosteric fragment 10): < 0. 59 M-1
activity ([1]; [Inhibitor] 1.3e-5 nM): 83.4% and 90.2% and 86.8%
activity ([1]; [Inhibitor] 3.18e-5 nM): 73.8% and 73.1% and 84.5%
activity ([1]; [Inhibitor] 7.78e-5 nM): 40.1% and 41.4% and 42.9%
activity ([1]; [Inhibitor] 0.000190441 nM, 190.4 fM): 19.1% and 19.2%
activity ([1]; [Inhibitor] 0.000465979 nM, 466 fM): 8.04% and 10%
activity ([1]; [Inhibitor] 0.00114018 nM, 1.14 pM): 5.9% and 5.75%
activity ([1]; [Inhibitor] 0.00278983 nM, 2.79 pM): 3.92% and 5.27%
activity ([1]; [Inhibitor] 0.00682626 nM, 6.826 pM): 3.83% and 4.05%
activity ([1]; [Inhibitor] 0.0167028 nM, 16.7 pM): 2.18% and 2.36%
IC50 ([1]; Table S1, read-out: IC50, LRTM): 0.051 to 0.064 nM and 0.051 to 0.059 nM
IC50 ([1]; enzyme 0.02 nM, ATP 100 µM, read-out: Biochemical EGFR IC50, LRTM): 0.059 ± 0.005 nM
linking coefficients ([1]; limits estimated from LRTM IC50 values): 0.5 to 1.0 M⁻¹
SMILES: CSc1nc(-c2cccc(NC(=O)c3cccc4c3NC(=O)c3ccccc3N4)c2)c(-c2ccnc(NC(C)=O)c2)[nH]1 [Compound 2]

SMILES: C=CC(=O)Nc1ccc(OC)c(Nc2cc(-c3[nH]c(CC)nc3-c3cccc(NC(=O)c4cccc5c4NC(=O)c4ccccc4N5)c3)ccn2)c1 [Compound 4]
POC (ULK1): 100% of control
POC (PIK3CA(M1043I)): 55% of control
POC (EPHA2): 100% of control
POC (CLK3): 74% of control
POC (PRKCE): 100% of control
POC (MAP3K3): 51% of control
POC (TYRO3): 32% of control
POC (AMPK-alpha2): 56% of control
POC (LRRK2): 93% of control
POC (PRKX): 100% of control
POC (FLT1): 100% of control
POC (GRK1): 94% of control
POC [2]: 100% of control
POC [3]: 74% of control
POC (PKAC-beta): 98% of control
POC (KIT(V559D+T670I)): 95% of control
POC (SLK): 100% of control
POC (TNK1): 22% of control
POC (CDK8): 81% of control
POC (MAP4K5): 2.5% of control
POC (MELK): 100% of control
POC (PFTK1): 90% of control
POC (ERN1): 74% of control
less potent than AZD9291 ([4]; HCC827): ~ 60 fold
antiproliferative active concentration ([4]; HCC827, text): 100 to 500 nM
less potent than AZD9291 ([5]; H1975): ~ 60 fold
antiproliferative active concentration ([5]; H1975, text): 100 to 500 nM
POC (EGFR(S752-I759del)): 6% of control
POC (DMPK): 45% of control
POC (KIT): 100% of control
POC (YSK1): 76% of control
POC (BLK): 1.7% of control
POC (KIT(L576P)): 84% of control
